Data as given in patent US12129221B2, “Difluoro phenyl amide RIP1 inhibitor” (SIRONAX LTD, priority 2018, dated 2024).
Like-named read-outs stand apart in the source and are kept apart here. Blank lines part the entries; values can stand above or below the molecule they belong to.

What was measured:
[1] = Liver microsome stability, human; assay type: in vitro ADME; settings: liver microsomes
From the text: (§1) Representative Metabolic Stability Data I; +, Extrapolated.

[2] = Liver microsome stability, rat; assay type: in vitro ADME; settings: liver microsomes
From the text: as §1

[3] = Hepatocyte stability, mini-pig; assay type: in vitro ADME; design: key to mini-pig T1/2 (min): +, Extrapolated; settings: extrapolated
From the text: (§2) Representative Metabolic Stability Data II, +, Extrapolated.

[4] = Hepatocyte stability, human; assay type: in vitro ADME; design: key to Human T1/2 (min): +, Extrapolated; settings: Hepatocyte stability; for Human T1/2 (min): extrapolated
From the text: as §2

[5] = Hepatocyte stability, monkey; assay type: in vitro ADME; design: key to Monkey T1/2 (min): +, Extrapolated; settings: Hepatocyte stability; for Monkey T1/2 (min): extrapolated
From the text: as §2

[6] = Hepatocyte stability, dog; assay type: in vitro ADME; design: key to Dog T1/2 (min): +, Extrapolated; settings: Hepatocyte stability; for Dog T1/2 (min): extrapolated
From the text: as §2

PK in rat = experiment: PK in rat; design: species or system SD rat; settings: Sprague-Dawley, in vivo; for bioavailability / half-life: rat, po
From the text: Representative PK Date of Pro-Drug Compounds

necrosis = experiment: Necrosis inhibitory activity (cell necrosis / cell viability assay); assay type: cell-based
From the text: Necrosis Inhibitory Activity
(§3) Representative IC50 of hRIP1 Kinase Assay Correlated with Our IC50 of Cell Necrosis Assay: […]

[7] = Liver microsome stability, mouse; assay type: in vitro ADME; settings: liver microsomes
From the text: as §1

[8] = Hepatocyte stability, rat; assay type: in vitro ADME; design: key to Rat T1/2 (min): +, Extrapolated; settings: Hepatocyte stability; for Rat T1/2 (min): extrapolated
From the text: as §2

[9] = Liver microsome stability, mini-pig; assay type: in vitro ADME; design: key to mini-pig T1/2 (min): +, Extrapolated; settings: extrapolated
From the text: as §1

[10] = Liver microsome stability, monkey; assay type: in vitro ADME; design: key to Monkey T1/2 (min): +, Extrapolated; settings: liver microsome stability; for half-life: monkey, liver microsomes, read-out: Monkey T1/2
From the text: as §1

ferroptosis = experiment: Ferroptosis inhibitor activity; assay type: cell-based; settings: 1 uM threshold activity extrapolated
From the text: Ferroptosis Inhibitor Activity 1 Um Threshold Activity Extrapolated

[11] = Hepatocyte stability, mouse; assay type: in vitro ADME; design: key to Mouse T1/2 (min): +, Extrapolated; settings: Hepatocyte stability; for Mouse T1/2 (min): extrapolated
From the text: as §2

[12] = Liver microsome stability, dog; assay type: in vitro ADME; design: key to Dog T1/2 (min): +, Extrapolated; settings: liver microsome stability; for half-life: dog, liver microsomes, read-out: Dog T1/2
From the text: as §1

Human RIP1 kinase = Human RIP1 kinase (Homo sapiens (Human), UniProt Q13546); experiment: Human RIP1 kinase assay; assay type: biochemical; settings: given as bound or range
Chain of Human RIP1 kinase (Q13546 whole entry): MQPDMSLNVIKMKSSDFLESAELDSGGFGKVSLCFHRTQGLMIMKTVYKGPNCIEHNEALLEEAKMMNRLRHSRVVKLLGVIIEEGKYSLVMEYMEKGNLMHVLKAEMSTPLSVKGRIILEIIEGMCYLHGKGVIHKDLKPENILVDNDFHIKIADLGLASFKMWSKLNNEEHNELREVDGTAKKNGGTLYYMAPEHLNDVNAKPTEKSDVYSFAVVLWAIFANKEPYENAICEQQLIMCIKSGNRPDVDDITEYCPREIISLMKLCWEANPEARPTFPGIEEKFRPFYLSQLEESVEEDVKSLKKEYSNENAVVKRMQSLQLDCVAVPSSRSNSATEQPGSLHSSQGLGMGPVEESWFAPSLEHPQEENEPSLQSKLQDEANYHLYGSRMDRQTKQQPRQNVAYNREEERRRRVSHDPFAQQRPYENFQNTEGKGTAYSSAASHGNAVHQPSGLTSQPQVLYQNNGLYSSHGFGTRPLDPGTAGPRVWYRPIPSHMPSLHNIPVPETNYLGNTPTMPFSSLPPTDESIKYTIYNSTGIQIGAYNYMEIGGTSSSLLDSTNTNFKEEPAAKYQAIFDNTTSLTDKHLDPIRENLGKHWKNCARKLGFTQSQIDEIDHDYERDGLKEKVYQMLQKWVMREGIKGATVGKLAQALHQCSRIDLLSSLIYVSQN
From the text: as §3

HT-29 = experiment: EC50 in HT-29; assay type: cell-based; settings: Homo sapiens
PK in mouse = settings: in vivo
PK in dog = settings: in vivo
[13] = liver microsome stability, read-out: Human T1/2
[14] = liver microsome stability, read-out: Rat T1/2
[15] = Necrosis Inhibitory Activity, given as range, read-out: EC50
[16] = liver microsome stability, read-out: Mouse T1/2
[17] = 60 mg/kg, SD rat, dose 60 mg/Kg micropower
[18] = cell necrosis assay, given as bound or range, read-out: Cell viability assay, EC50
[19] = comparison table with WO2016/101885 compounds, read-out: Human Liver Microsome T1/2
[20] = comparison table with WO2016/101885 compounds, read-out: Rat Liver Microsome T1/2
[21] = comparison table with WO2016/101885 compounds, read-out: Mouse Liver Microsome T1/2

Structure (SMILES): CCC(C)(C)C(=O)N(O)Cc1ccc(Cl)cc1 [Compound 15, N-(4-chlorobenzyl)-N-hydroxy-2,2-dimethylbutanamide]
- half-life [1, 13]: 96.8 min
- half-life [2, 14]: 41.1 min
- mini-pig T1/2 (min) [3]: +
- Human T1/2 (min) [4]: +
- Monkey T1/2 (min) [5]: +
- Dog T1/2 (min) [6]: +
- AUC (PK in rat; SD rat, PO 10 mg/kg): 923 ng·h/mL
- bioavailability (PK in rat; 10 mg/kg, SD rat, PO 10 mg/kg): 20.3%
- half-life (PK in rat; 10 mg/kg, SD rat, PO 10 mg/kg): 293 min
- EC50 (necrosis; [15]): 1 to 1000 nM
- half-life [7, 16]: 16.6 min
- Rat T1/2 (min) [8]: +
- mini-pig T1/2 (min) [9]: +
- Monkey T1/2 (min) ([10]; extrapolated): +
- EC50 (ferroptosis): 1000 to 10000 nM
- Mouse T1/2 (min) [11]: +
- Dog T1/2 (min) ([12]; extrapolated): +

Structure (SMILES): C=CC(C)(C)C(=O)N(O)Cc1ccccc1 [Compound 19, N-benzyl-N-hydroxy-2,2-dimethylbut-3-enamide]
- half-life [1, 13]: 154 min
- half-life [2, 14]: 28.9 min
- mini-pig T1/2 (min) [3]: +
- Human T1/2 (min) [4]: +
- Monkey T1/2 (min) [5]: +
- Dog T1/2 (min) [6]: +
- EC50 (necrosis; [15]): 1 to 1000 nM
- half-life [7, 16]: 25.4 min
- Rat T1/2 (min) [8]: +
- mini-pig T1/2 (min) [9]: +
- half-life [10]: 0.3 min
- EC50 (ferroptosis): 1000 to 10000 nM
- Mouse T1/2 (min) [11]: +
- half-life [12]: 6 min

Structure (SMILES): CCC1(C(=O)N(O)Cc2ccccc2)CC1 [Compound 38, N-benzyl-1-ethyl-N-hydroxycyclopropane-1-carboxamide]
- IC50 (Human RIP1 kinase): 100 to 1000 nM
- EC50 (necrosis; [15]): 1000 to 10000 nM
- EC50 (necrosis; [18]): 1 to 10000 nM
- EC50 (ferroptosis): 1000 to 10000 nM

Structure (SMILES): Cc1ccsc1CN(O)C(=O)C(C)(C)C(F)(F)F [Compound 48, 3,3,3-trifluoro-N-hydroxy-2,2-dimethyl-N-((3-methylthiophen-2-yl)methyl)propanamide]
- IC50 (Human RIP1 kinase): 100 to 1000 nM
- EC50 (necrosis; [15]): 1000 to 10000 nM
- EC50 (necrosis; [18]): 1 to 10000 nM
- EC50 (ferroptosis): 1000 to 10000 nM

Structure (SMILES): O=C(C1CCN(c2ncc(F)cn2)CC1)N(O)Cc1ccccc1 [Compound 84, N-benzyl-1-(5-fluoropyrimidin-2-yl)-N-hydroxypiperidine-4-carboxamide]
- IC50 (Human RIP1 kinase): < 100 nM
- EC50 (necrosis; [15]): 1 to 1000 nM
- EC50 (necrosis; [18]): < 100 nM
- EC50 (ferroptosis): 1000 to 10000 nM

Structure (SMILES): O=C(C1CCN(c2ncc(F)cn2)CC1)N(O)Cc1cc(F)cc(F)c1 [Compound 86, N-(3,5-difluorobenzyl)-1-(5-fluoropyrimidin-2-yl)-N-hydroxypiperidine-4-carboxamide]
- IC50 (Human RIP1 kinase): < 100 nM
- EC50 (necrosis; [15]): 1 to 1000 nM
- EC50 (necrosis; [18]): 1 to 1000 nM
- EC50 (ferroptosis): 1000 to 10000 nM

Structure (SMILES): CCC(C)(C)C(=O)N(O)Cc1ccc(F)c(F)c1F [SIR1-184]
- EC50 (HT-29): 272 nM
- half-life [1, 19]: 36 min
- half-life [2, 20]: 19 min
- half-life [7, 21]: 12 min

Now from value to molecule, other results behind:

- half-life [1, 13]: 136 min
- half-life [2, 14]: 23.3 min
- half-life ([4]; human, hepatocytes, read-out: Human T1/2): 110 min
- half-life ([5]; monkey, hepatocytes, read-out: Monkey T1/2): 19.3 min
- half-life ([6]; dog, hepatocytes, read-out: Dog T1/2): 8.43 min
- AUC (PK in rat; SD rat, PO, dose 60 mg/Kg micropower): 8340 ng·h/mL
- bioavailability (PK in rat; [17]): 74.1%
- half-life (PK in rat; [17]): 171 min
- half-life [7, 16]: 21.1 min
- half-life ([8]; rat, hepatocytes, read-out: Rat T1/2): 33.4 min
- mini-pig T1/2 (min) [9]: +
- half-life [10]: 4.97 min
- EC50 (ferroptosis): 1000 to 10000 nM
- half-life ([11]; mouse, hepatocytes, read-out: Mouse T1/2): 21 min
- half-life [12]: 2.31 min
Structure (SMILES): [2H]CC([2H])C(C)(C)C(=O)N(O)Cc1cc(F)cc(F)c1 (centres unmarked) [Compound 26, N-(3,5-difluorobenzyl)-N-hydroxy-2,2-dimethylbutanamide-3,4-d2]
- EC50 (necrosis; [15]): 1 to 1000 nM

- half-life [1, 13]: 178 min
- half-life [2, 14]: 19.8 min
- mini-pig T1/2 (min) [3]: +
- Human T1/2 (min) [4]: +
- Monkey T1/2 (min) [5]: +
- Dog T1/2 (min) [6]: +
- AUC (PK in rat; SD rat, PO 10 mg/kg): 78.6 ng·h/mL
- bioavailability (PK in rat; 10 mg/kg, SD rat, PO 10 mg/kg): 5.29%
- half-life (PK in rat; 10 mg/kg, SD rat, PO 10 mg/kg): 55.2 min
- half-life [7, 16]: 26.5 min
- Rat T1/2 (min) [8]: +
- mini-pig T1/2 (min) [9]: +
- half-life [10]: 0.6 min
- EC50 (ferroptosis): 1000 to 10000 nM
- Mouse T1/2 (min) [11]: +
- half-life [12]: 1.5 min
Structure (SMILES): [2H]CC([2H])C(C)(C)C(=O)N(O)Cc1ccccc1 (centres unmarked) [Compound 27, N-benzyl-N-hydroxy-2,2-dimethylbutanamide-3,4-d2]
- EC50 (necrosis; [15]): 1 to 1000 nM

- half-life [1, 13]: 195 min
- half-life [2, 14]: 28.6 min
- mini-pig T1/2 (min) [3]: +
- Human T1/2 (min) [4]: +
- Monkey T1/2 (min) [5]: +
- Dog T1/2 (min) [6]: +
- AUC (PK in rat; SD rat, PO 10 mg/kg): 318 ng·h/mL
- bioavailability (PK in rat; 10 mg/kg, SD rat, PO 10 mg/kg): 14.8%
- half-life (PK in rat; 10 mg/kg, SD rat, PO 10 mg/kg): 37 min
- half-life [7, 16]: 33.6 min
- Rat T1/2 (min) [8]: +
- mini-pig T1/2 (min) [9]: +
- half-life [10]: 3.3 min
- EC50 (ferroptosis): 1000 to 10000 nM
- Mouse T1/2 (min) [11]: +
- half-life [12]: 3.5 min
Structure (SMILES): [2H]C([2H])C([2H])([2H])C(C)(C)C(=O)N(O)Cc1ccccc1 [Compound 28, N-benzyl-N-hydroxy-2,2-dimethylbutanamide-3,3,4,4-d4]
- EC50 (necrosis; [15]): 1 to 1000 nM

- EC50 (HT-29): 65 nM
- half-life [1, 19]: 67 min
- half-life [2, 20]: 22 min
- half-life [7, 21]: 9 min
Structure (SMILES): CCC(C)(C)C(=O)N(O)Cc1cc(F)cc(F)c1F [SIR1-176]

- EC50 (HT-29): 197 nM
- half-life [1, 19]: 198 min
- half-life [2, 20]: 28 min
- half-life [7, 21]: 23 min
Structure (SMILES): CCC(C)(C)C(=O)N(O)Cc1ccc(F)cc1F [SIR1-179]

- EC50 (HT-29): 55 nM
- half-life [1, 19]: 107 min
- half-life [2, 20]: 29 min
- half-life [7, 21]: 11 min
Structure (SMILES): CCC(C)(C)C(=O)N(O)Cc1ccc(F)c(F)c1 [SIR1-180]

- EC50 (HT-29): 64 nM
- half-life [1, 19]: 178 min
- half-life [2, 20]: 37 min
- AUC(0-inf) (PK in mouse; IV 2 mg/kg): 522 ng·h/mL
- clearance (PK in mouse; IV 2 mg/kg): 63.7 mL/min/kg
- half-life (PK in mouse; IV 2 mg/kg): 35.7 min
- Vd (PK in mouse; IV 2 mg/kg, read-out: Vdss): 3.28 L/kg
- AUC(0-inf) (PK in mouse; PO 10 mg/kg): 1740 ng·h/mL
- Cmax (PK in mouse; PO 10 mg/kg): 2850 ng/mL
- bioavailability (PK in mouse; PO 10 mg/kg): 66.6%
- half-life (PK in mouse; PO 10 mg/kg): 30.8 min
- AUC(0-inf) (PK in rat; Rat, PO 10 mg/kg): 24.3 ng·h/mL
- Cmax (PK in rat; Rat, PO 10 mg/kg): 32.3 ng/mL
- half-life (PK in rat; 10 mg/kg, PO 10 mg/kg): 32.5 min
- half-life [7, 21]: 24 min
- AUC(0-inf) (PK in dog; IV 5 mg/kg): 3210 ng·h/mL
- clearance (PK in dog; IV 5 mg/kg): 25.9 mL/min/kg
- half-life (PK in dog; IV 5 mg/kg): 120 min
- Vd (PK in dog; IV 5 mg/kg, read-out: Vdss): 1.8 L/kg
- AUC(0-inf) (PK in dog; PO 10 mg/kg): 148 ng·h/mL
- Cmax (PK in dog; PO 10 mg/kg): 195 ng/mL
- bioavailability (PK in dog; PO 10 mg/kg): 2.5%
- half-life (PK in dog; PO 10 mg/kg): 276 min
Structure (SMILES): CCC(C)(C)C(=O)N(O)Cc1ccc(F)cc1 [SIR1-181]

- EC50 (HT-29): 46 nM
- half-life [1, 19]: 64 min
- half-life [2, 20]: 21 min
- half-life [7, 21]: 6 min
Structure (SMILES): CCC(C)(C)C(=O)N(O)Cc1cc(F)c(F)c(F)c1 [SIR1-186]
